Experiments:
Assay type in all cases: cell-based, mouse
Gpr132 = test: calcium mobilization assay in BMDMs; settings: WT or Gpr132-KO BMDMs stimulated with 25 mM
Protocol: FIG. 27. […] WT or Gpr132-KO BMDMs were stimulated with 25 mM lactate (Left) or HCl (Right) (n=3).
To determine whether Gpr132 is required for lactate signaling in macrophages, a calcium mobilization assay was performed. […] First, lactate levels in the CM of distinct cancer cell lines were measured using a Vitros 250 chemistry analyzer. […] Second, the effects of blocking lactate production from EO771 and 4T1.2 cells by oxamic acid, an inhibitor of lactate dehydrogenase was tested.

AKT/mTOR signaling = test: PathScan Akt Signaling Antibody Array in macrophages; settings: lactate 5 mM for 15 min
Protocol: FIG. 20. Lactate activates macrophage AKT/mTOR signaling via Gpr132. WT and Gpr132-KO bone marrow-derived macrophages were serum starved for 24 hrs. After treatment with lactate (5 mM) for 15 min, cell lysate was harvested for detecting the activation status of AKT signaling pathway using a PathScan Akt Signaling Antibody Array Kit. WT, wild-type; Gpr132-KO, Gpr132 knockout.
To identify the signaling pathways that may mediate the function of lactate-Gpr132 axis in M2 macrophage activation, PathScan Akt Signaling Antibody Array was used to screen potential targets due to the importance of the Akt pathway in macrophage polarization. […] These findings reveal that lactate activation of Gpr132 facilitates macrophage M2 activation by augmenting AKT/mTOR signaling.
Samples of 20 μg protein were applied to SDS polyacrylamide gels. After protein transfer, membranes were incubated with antibodies for Arg-1 (rabbit polyclonal, Santa Cruz Biotechnology), CD206, Gpr132, or β-actin (mouse monoclonal, Sigma) (1:1000) overnight at 4° C. […] Densitometric quantification was performed by Image-Pro Plus 6.0 software (Media Cybernetics). PathScan Akt Signaling Antibody Array (Cell Signaling) was incubated with macrophage proteins and analyzed following kit instructions.

[1] = test system: breast cancer cells (EO771, 4T1.2); test: Boyden chamber assay, cancer cell invasion (matrigel)
Protocol: FIGS. 11A-11C. Lactate-activated macrophage promotes cancer cell adhesion, migration and invasion via Gpr132. (FIG. 11A) Adherence assays. 4T1.2 cells were suspended in fibronectin ([…]) pre-coated plates with CM from spleen-derived macrophages (mf) that were treated with 4T1.2 CM or lactate (5 mM) with or without Gpr132 antibody (6 mg/ml) or normal IgG (6 mg/ml) for 10 min. The adhered cells were stained with crystal violet, dissolved in 1% Triton X-100 and measured by OD590. (FIGS. 11B-11C) Boyden chamber assay of cancer cell migration and invasion. 4T1.2 cells (B) or EO771 cells (FIG. 11C) were plated on the upper chamber inserts, with untreated (Control), 4T1.2 CM-activated or lactate-activated spleen-derived WT or Gpr132-KO macrophages plated in the lower chambers. For invasion assay, the inserts were pre-coated with 60 μl matrigel. After migration for 6 hrs (FIG. 11B) or invasion for 24 hrs (FIG. 11C), the migrated or invaded cells were stained with crystal violet and counted as cells per field of view under microscope (n=3-4); For (FIG. 11C), the first bar of each data set of the bar graphs represents the control mf, and the second bar represents Gpr132KO; *p<0.05; **p<0.01; ***p<0.005; ****p<0.001. Scale bar, 500 μm.
FIGS. 23A-23B. Cancer cell-derived lactate activates macrophages to promote cancer cell migration and invasion via Gpr132. (FIGS. 23A-23B) Boyden chamber assay. EO771 or 4T1.2 cells were cultured in the presence or absence of oxamic acid (90 mM) for 3 days. CM was harvested after the cells were cultured for another 24 hrs without oxamic acid. […] After migration for 6 hrs (FIG. 23A) or invasion for 24 hrs (FIG. 23B), the migrated or invaded cells were stained with crystal violet and counted as cells per field of view under microscope (n=3-4); for (FIG. 23A), the bars in each data set of the bar graph represent, from left to right, control, EO771, Oxamic acid, and Oxamic acid+Lactate; for (FIG. 23B), the bars in each data set of the bar graph represent, from left to right, control, 4T1.2CM, Oxamic acid, and Oxamic acid+Lactate; *p<0.05; ****p<0.001. […]

CC(O)C(=O)O (centres unmarked) [lactate]
effect of Gpr132 deletion on triggered calcium mobilization (Gpr132): compromised
increase of AKT/mTOR pathway phosphorylation in Gpr132-KO macrophages (AKT/mTOR signaling; Gpr132-KO BMDMs): not
phosphorylation of AKT (Thr308), mTOR (Ser2481), S6 Ribosomal protein (Ser235/236) and RSK-1 (Thr421/Ser424) in WT macrophages (AKT/mTOR signaling; serum starved WT BMDMs): increased
breast cancer cell invasion induced by activated macrophages, Gpr132 deletion ([1]; EO771 cells, 24 hrs, Gpr132-KO macrophages): completely abrogated
rescue of invasion by addition to oxamic acid-pretreated cancer cell CM ([1]; exogenous lactate, WT macrophages): restored

From patent US20210095293A1, “METHODS OF TREATING CANCERS WITH GPR132 INHIBITORS” (The Board of Regents of the University of Texas System, priority 2016, published 2021)
